Measured values from patent US10160762B2, “6-alkyl dihydropyrazolopyrimidinone compounds as PDE2 inhibitors” (Merck Sharp & Dohme Corp., priority 2015, dated 2018).
Read-outs that look alike come from different tables or passages of the source.

Biological target: T1, Rhesus PDE2A3 (Macaca mulatta, UniProt B3VTJ2)
T1 construct: made in house; host or cells: AD293 cells, transient transfection; supernatant of sonicated lysate
T1 sequence (B3VTJ2 1-941): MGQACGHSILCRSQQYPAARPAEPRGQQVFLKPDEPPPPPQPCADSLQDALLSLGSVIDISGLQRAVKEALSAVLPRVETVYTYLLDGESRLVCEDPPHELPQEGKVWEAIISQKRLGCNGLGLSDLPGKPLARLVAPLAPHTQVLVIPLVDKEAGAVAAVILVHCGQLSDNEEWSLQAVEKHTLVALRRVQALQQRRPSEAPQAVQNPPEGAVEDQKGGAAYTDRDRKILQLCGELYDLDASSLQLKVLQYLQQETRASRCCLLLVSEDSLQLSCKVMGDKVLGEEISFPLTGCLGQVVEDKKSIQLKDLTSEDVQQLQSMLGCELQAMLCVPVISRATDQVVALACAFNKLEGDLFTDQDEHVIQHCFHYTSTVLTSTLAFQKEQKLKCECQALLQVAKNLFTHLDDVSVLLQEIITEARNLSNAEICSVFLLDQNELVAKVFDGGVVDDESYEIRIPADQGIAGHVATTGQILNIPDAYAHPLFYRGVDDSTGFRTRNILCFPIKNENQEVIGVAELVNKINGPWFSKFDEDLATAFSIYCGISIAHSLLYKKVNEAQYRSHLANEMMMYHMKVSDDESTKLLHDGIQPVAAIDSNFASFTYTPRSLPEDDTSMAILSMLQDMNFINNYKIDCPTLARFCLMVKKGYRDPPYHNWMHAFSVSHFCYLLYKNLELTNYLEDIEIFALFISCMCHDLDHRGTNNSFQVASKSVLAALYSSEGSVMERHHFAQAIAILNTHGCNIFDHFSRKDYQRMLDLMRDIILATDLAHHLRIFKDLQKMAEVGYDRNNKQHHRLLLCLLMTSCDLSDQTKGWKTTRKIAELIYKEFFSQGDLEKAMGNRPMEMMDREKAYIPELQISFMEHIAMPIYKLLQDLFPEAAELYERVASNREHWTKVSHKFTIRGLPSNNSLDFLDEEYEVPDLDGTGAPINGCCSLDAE
Experiment: PDE2 fluorescence polarization (IMAP FP) inhibition assay, rhesus PDE2A3
Type: biochemical, rhesus macaque
In short: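 Enzyme source was the lysate supernatant of AD293 cells transiently expressing rhesus PDE2A3, diluted to give 20% conversion of 50 nM FAM-cAMP, with 1 µM cGMP as activator. Buffer was 10 mM Tris pH 7.2, 10 mM MgCl2, 1 mM DTT.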

[1] = Lab B, read-out: Rhesus PDE2 Ki (nM) Lab B
[2] = Lab A, read-out: Rhesus PDE2 Ki (nM) Lab A

Question: Which Ki [1] does the source give for `Cc1nc2c(c(CF)nn2C(C)c2ccc(CC(F)(F)F)cc2)c(=O)[nH]1` (single isomer, unassigned) [Example 211, (S)- or (R)-3-(Fluoromethyl)-6-methyl-1-(1-(4-(2,2,2-trifluoroethyl)phenyl)ethyl)-1H-pyrazolo[3,4-d]pyrimidin-4(5H)-one] here?
Answer: Its Ki is 0.49 nM.

Question: For `Cc1nc2c(c(CF)nn2C2(c3ccc(C(F)(F)F)cc3)CCC2)c(=O)[nH]1` [Example 202, 3-(Fluoromethyl)-6-methyl-1-(1-(4-(trifluoromethyl)phenyl)cyclobutyl)-1H-pyrazolo[3,4-d]pyrimidin-4(5H)-one], which Ki [1] is on record?
Answer: Its Ki is 3.1 nM.

Question: How did the Ki [2] turn out when `Cc1nc2c(c(C(C)(C)O)nn2C(C)c2ccc(C(F)(F)F)cc2)c(=O)[nH]1` (centres unmarked) [Example 326, 3-(1-Hydroxy-1-methylethyl)-6-methyl-1-{1-[4-(trifluoromethyl)phenyl]ethyl}-1,5-dihydro-4H-pyrazolo[3,4-d]pyrimidin-4-one] was run?
Answer: The Ki was 134 nM.

Question: For `COc1ccc(Cc2nc3c(c(C)nn3C(C)c3ccc(C(F)(F)F)cc3)c(=O)[nH]2)cc1` (centres unmarked) [Example 46, 6-(4-Methoxybenzyl)-3-methyl-1-{1-[4-(trifluoromethyl)phenyl]ethyl}-1,5-dihydro-4H-pyrazolo[3,4-d]pyrimidin-4-one], which Ki [2] is on record?
Answer: Its Ki is 7.1 nM.

Question: `Cc1nc2c(c(CO)nn2C(C)c2ccc(C(F)(F)F)c(F)c2)c(=O)[nH]1` (single isomer, unassigned) [Example 13, (S)- or (R)-1-(1-(3-Fluoro-4-(trifluoromethyl)phenyl)ethyl)-3-(hydroxymethyl)-6-methyl-1H-pyrazolo[3,4-d]pyrimidin-4(5H)-one] was tested. Which Ki [2] did it give?
Answer: Its Ki is 1.3 nM.

Question: And the Ki [1]?
Answer: Its Ki is 3 nM.

Question: With `Cc1nc2c(c(CF)nn2C(C)c2ccc(S(F)(F)(F)(F)F)cc2)c(=O)[nH]1` (single isomer, unassigned) [Example 200] as the molecule, how does the Ki [1] read?
Answer: Its Ki is 2.4 nM.

Question: `Cc1nn(C(C)c2ccc(C(F)(F)F)cc2)c2nc(-c3ccccn3)[nH]c(=O)c12` (centres unmarked) [Example 52, 3-Methyl-6-pyridin-2-yl-1-{1-[4-(trifluoromethyl)phenyl]ethyl}-1,5-dihydro-4H-pyrazolo[3,4-d]pyrimidin-4-one] was tested. Which Ki [2] did it give?
Answer: Its Ki is 28 nM.

Question: `Cc1nc2c(c(C(F)F)nn2C(C)c2ccc(C(F)(F)F)cc2)c(=O)[nH]1` (single isomer, unassigned) [Example 176] was tested. Which Ki [1] did it give?
Answer: Its Ki is 1.4 nM.

Question: With `COc1ccc(Cc2nc3c(c(C(F)F)nn3C(C)c3ccc(C(F)(F)F)cc3)c(=O)[nH]2)cc1OC` (single isomer, unassigned) [Example 197] as the molecule, how does the Ki [1] read?
Answer: The Ki was ~0.15 nM.

Question: Which results are given for `Cc1nc2c(c(CF)nn2C(C)c2ccc(OC(F)(F)F)c(F)c2)c(=O)[nH]1` (single isomer, unassigned) [Example 217, (S)- or (R)-1-(1-(3-Fluoro-4-(trifluoromethoxy)phenyl)ethyl)-3-(fluoromethyl)-6-methyl-1H-pyrazolo[3,4-d]pyrimidin-4(5H)-one]?
Answer: Ki [2]: 0.39 nM; Ki [1]: 0.53 nM

Question: With `Cc1nc2c(c(CF)nn2C(C)c2ccc(C(C)(C)C)cc2)c(=O)[nH]1` (single isomer, unassigned) [Example 215, (S)- or (R)-1-(1-(4-tert-Butylphenyl)ethyl)-3-(fluoromethyl)-6-methyl-1H-pyrazolo[3,4-d]pyrimidin-4(5H)-one] as the molecule, how does the Ki [2] read?
Answer: The Ki was 0.24 nM.

Question: And the Ki [1]?
Answer: The Ki was 0.63 nM.

Question: How did the Ki [1] turn out when `Cc1nc2c(c(CO)nn2[C@@H](C)c2ccc(OC(F)(F)F)cc2)c(=O)[nH]1` [Example 158, (S)-3-(Hydroxymethyl)-6-methyl-1-(1-(4-(trifluoromethoxy)phenyl)ethyl)-1H-pyrazolo[3,4-d]pyrimidin-4(5H)-one] was run?
Answer: Its Ki is 4.5 nM.

Question: With `Cc1nc2c(c(CF)nn2C(C)c2ccc(C(F)(F)F)c(F)c2)c(=O)[nH]1` (centres unmarked) [Example 230, 1-(1-(3-Fluoro-4-(trifluoromethyl)phenyl)ethyl)-3-(fluoromethyl)-6-methyl-1H-pyrazolo[3,4-d]pyrimidin-4(5H)-one] as the molecule, how does the Ki [2] read?
Answer: Its Ki is 2.3 nM.

Question: And the Ki [1]?
Answer: Its Ki is 3.4 nM.

Question: With `Cc1nc2c(c(CO)nn2C(c2ccc(OC(F)(F)F)c(F)c2)C(C)C)c(=O)[nH]1` (single isomer, unassigned) [Example 126, (R)- or (S)-1-(1-(3-Fluoro-4-(trifluoromethoxy)phenyl)-2-methylpropyl)-3-(hydroxyl-methyl)-6-methyl-1H-pyrazolo-[3,4-d]pyrimidin-4(5H)-one] as the molecule, how does the Ki [1] read?
Answer: Its Ki is 6 nM.

Question: For `COCc1nc2c(c(C)nn2C(C)c2ccc(C(F)(F)F)cc2)c(=O)[nH]1` (centres unmarked) [Example 48, 6-(Methoxymethyl)-3-methyl-1-{1-[4-(trifluoromethyl)phenyl]ethyl}-1,5-dihydro-4H-pyrazolo[3,4-d]pyrimidin-4-one], which Ki [2] is on record?
Answer: Its Ki is 36 nM.

Question: For `COc1cccc(Cc2nc3c(c(C)nn3C(C)c3ccc(C(F)(F)F)cc3)c(=O)[nH]2)c1` (centres unmarked) [Example 45, 6-(3-Methoxybenzyl)-3-methyl-1-{1-[4-(trifluoromethyl)phenyl]ethyl}-1,5-dihydro-4H-pyrazolo[3,4-d]pyrimidin-4-one], which Ki [2] is on record?
Answer: Its Ki is 26 nM.

Question: How did the Ki [1] turn out when `Cc1nc2c(c(CO)nn2C(c2ccc(OC(F)(F)F)cc2)C2CC2)c(=O)[nH]1` (single isomer, unassigned) [Example 94, (R)- or (S)-1-(Cyclopropyl(4-(trifluoromethoxy)phenyl)methyl)-3-(hydroxymethyl)-6-methyl-1H-pyrazolo[3,4-d]pyrimidin-4(5H)-one] was run?
Answer: The Ki was 18 nM.

Question: `Cc1nn(C(C)c2ccc(C(F)(F)F)cc2)c2nc(-c3cnc4ccccc4n3)[nH]c(=O)c12` (centres unmarked) [Example 50, 3-Methyl-6-quinoxalin-2-yl-1-{1-[4-(trifluoromethyl)phenyl]ethyl}-1,5-dihydro-4H-pyrazolo[3,4-d]pyrimidin-4-one] was tested. Which Ki [2] did it give?
Answer: Its Ki is 62 nM.

Question: `COCc1nc2c(c(CF)nn2C(C)c2ccc(C(F)(F)F)cc2)c(=O)[nH]1` (centres unmarked) [Example 205, 3-(Fluoromethyl)-6-(methoxymethyl)-1-{1-[4-(trifluoromethyl)phenyl]ethyl}-1,5-dihydro-4H-pyrazolo[3,4-d]pyrimidin-4-one] was tested. Which Ki [1] did it give?
Answer: Its Ki is 3.2 nM.

Question: For `Cc1nc2c(c(CO)nn2C(C)c2ccc(OC(F)(F)F)c(F)c2)c(=O)[nH]1` (single isomer, unassigned) [Example 11, (S)- or (R)-1-(1-(3-Fluoro-4-(trifluoromethoxy)phenyl)ethyl)-3-(hydroxymethyl)-6-methyl-1H-pyrazolo[3,4-d]pyrimidin-4(5H)-one], which Ki [2] is on record?
Answer: The Ki was 0.85 nM.

Question: And the Ki [1]?
Answer: The Ki was 2 nM.

Question: Which Ki [2] does the source give for `CCc1nc2c(c(C)nn2C(C)c2ccc(C(F)(F)F)cc2)c(=O)[nH]1` (centres unmarked) [Example 38, 6-Ethyl-3-methyl-1-{1-[4-(trifluoromethyl)phenyl]ethyl}-1,5-dihydro-4H-pyrazolo[3,4-d]pyrimidin-4-one] here?
Answer: The Ki was 58 nM.

Question: Which results are given for `Cc1nc2c(c(CF)nn2C(c2ccc(C(F)(F)F)cc2)C(F)(F)F)c(=O)[nH]1` (centres unmarked) [Example 201, 3-(Fluoromethyl)-6-methyl-1-(2,2,2-trifluoro-1-(4-(trifluoromethyl)phenyl)-ethyl)-1H-pyrazolo[3,4-d]pyrimidin-4(5H)-one]?
Answer: Ki [2]: 1.4 nM; Ki [1]: 4.1 nM

Question: Which Ki [2] does the source give for `Cc1nc2c(c(CO)nn2C(c2ccc(C(F)(F)F)cc2)C(F)(F)F)c(=O)[nH]1` (centres unmarked) [Example 6, 3-(Hydroxymethyl)-6-methyl-1-(2,2,2-trifluoro-1-(4-(trifluoromethyl)phenyl)ethyl)-1H-pyrazolo[3,4-d]pyrimidin-4(5H)-one] here?
Answer: The Ki was 1.6 nM.

Question: What about the Ki [1] of the same molecule?
Answer: The Ki was 3.5 nM.

Question: `Cc1nc2c(c(CCl)nn2C(c2ccc(C(F)(F)F)cc2)C2CC2)c(=O)[nH]1` (centres unmarked) [Example 232, 3-(chloromethyl)-1-(cyclopropyl(4-(trifluoromethyl)phenyl)methyl)-6-methyl-1H-pyrazolo[3,4-d]pyrimidin-4(5H)-one] was tested. Which Ki [2] did it give?
Answer: The Ki was 0.47 nM.

Question: What about the Ki [1] of the same molecule?
Answer: The Ki was 0.85 nM.
